Like-named read-outs stand apart in the source and are kept apart here.
How the values were obtained:
[1] = system: dulcitol accumulation in the sciatic nerve; experiment: % lowering of dulcitol accumulation in sciatic nerve (N) of galactosemic rats; assay type: in vivo, Sprague-Dawley; parameters: key: NS: statistically nonsignificant change; conditions: 4 days
Source text: (§1) The aldose reductase inhibiting property of the compounds of this invention and the utilization of the compounds in preventing, diminishing and alleviating diabetic complications are demonstrable in experiments using galactosemic rats, see Dvornik et al., Science, 182, 1146 (1973). Such experiments are exemplified hereinbelow after the listing of the following general comments pertaining to these experiments:
(§2) (a) Four or more groups of six male rats, 50-70 g, Sprague-Dawley strain, were used. The first group, the control group, was fed a mixture of laboratory chow (rodent Laboratory Chow, Purina) and glucose at 20% (w/w %) concentration. An untreated galactosemic group was fed a similar diet in which galactose was substituted for glucose. The third group was fed a diet prepared by mixing a given amount of the test compound with the galactose containing diet. The concentration of galactose in the diet of the treated groups was the same as that for the untreated galactosemic group.
(§3) (b) After four days, the animals were killed by euthanization. Both the lens and sciatic nerve were removed, weighed and stored frozen for polyol determination.
(§4) (c) The polyol determination was performed by a modification of the procedure of M. Kraml and L. Cosyns, Clin. Biochem., 2,373 (1969). Only two minor reagent changes were made: (a) The rinsing mixture was an aqueous 5% (w/v) trichloroacetic acid solution and (b) the stock solution was prepared by dissolving 25 mg of dulcitol in 100 ml of an aqueous trichloroacetic acid solution. [N.B.: For each experiment the average value found in the tissue from rats fed the glucose diet was subtracted from the individual values found in the corresponding tissue in galactose-fed rats to obtain the amount of polyol accumulated.] The aldose reductase inhibiting effects of the compounds of formula (I) were also tested by employing an in vitro testing procedure similar to that described by S. Hayman and J.H. Kinoshita, J. Biol. Chem., 240,877 (1965). In the present case the procedure of Hayman and Kinoshita was modified in that the final chromatography step was omitted in the preparation of the enzyme from bovine lens.
(§5) The figures under L and N represent the percentage decrease of dulcitol accumulation in the tissues of the lens and sciatic nerve, respectively, for treated rats as compared to untreated rats.

[2] = target: T1, aldose reductase (Bos taurus, UniProt P16116); experiment: in vitro aldose reductase inhibition (modified Hayman and Kinoshita; enzyme from bovine lens); assay type: biochemical; conditions: read-out: % Inhibition IN VITRO
T1 construct: preparation of the enzyme from bovine lens; from tissue; host or cells: bovine lens
Procedure: Only two minor reagent changes were made: (a) The rinsing mixture was an aqueous 5% (w/v) trichloroacetic acid solution and (b) the stock solution was prepared by dissolving 25 mg of dulcitol in 100 ml of an aqueous trichloroacetic acid solution. [N.B.: For each experiment the average value found in the tissue from rats fed the glucose diet was subtracted from the individual values found in the corresponding tissue in galactose-fed rats to obtain the amount of polyol accumulated.] […] In the present case the procedure of Hayman and Kinoshita was modified in that the final chromatography step was omitted in the preparation of the enzyme from bovine lens. […] The figures under L and N represent the percentage decrease of dulcitol accumulation in the tissues of the lens and sciatic nerve, respectively, for treated rats as compared to untreated rats.

[3] = system: dulcitol accumulation in the lens; experiment: % lowering of dulcitol accumulation in lens (L) of galactosemic rats; assay type: in vivo, Sprague-Dawley; parameters: key: NS: statistically nonsignificant change; conditions: 4 days
Source text: as §1, §2, §3, §4, §5

| inhibition at 10 µM ([2]; 10^-5 M) [%] | inhibition at 1 µM ([2]; 10^-6 M) [%] | SMILES | % Lowering Dulcitol Accumulation IN VIVO, N (sciatic nerve) ([1]; 1.0 mg/kg in diet) [%] | inhibition at 0.04 µM ([2]; 4 × 10^-8 M) [%] | inhibition at 0.1 µM ([2]; 10^-7 M) [%] | % Lowering Dulcitol Accumulation IN VIVO, L (lens) ([3]; 1.0 mg/kg in diet) | % Lowering Dulcitol Accumulation IN VIVO, N (sciatic nerve) ([1]; 0.5 mg/kg in diet) | inhibition at 1 µM [2] [%] | inhibition at 10 µM [2] [%] | % Lowering Dulcitol Accumulation IN VIVO, L (lens) ([3]; 0.5 mg/kg in diet) | also measured |
| --- | --- | --- | --- | --- | --- | --- | --- | --- | --- | --- | --- |
| 100 | 97 | O=C1CC2(C(=O)N1)C(=O)N(Cc1ccc(Cl)c(Cl)c1)C(=O)c1ccccc12 (stereo not drawn) [2-[(3,4-Dichlorophenyl)methyl]spiro[isoquinoline-4(1H),3'-pyrrolidine]-1,2',3,5'(2H)-tetrone] | 64.0 | 42 | 87 | 10.0% |  |  |  |  | % Lowering Dulcitol Accumulation IN VIVO, N (sciatic nerve) ([1]; 3.0 mg/kg in diet): 76.0%; % Lowering Dulcitol Accumulation IN VIVO, N (sciatic nerve) ([1]; 10.0 mg/kg in diet): 92.0%; % Lowering Dulcitol Accumulation IN VIVO, N (sciatic nerve) ([1]; 48.0 mg/kg in diet): 85.0%; % Lowering Dulcitol Accumulation IN VIVO, L (lens) ([3]; 3.0 mg/kg in diet): 18.0%; % Lowering Dulcitol Accumulation IN VIVO, L (lens) ([3]; 10.0 mg/kg in diet): 35.0%; % Lowering Dulcitol Accumulation IN VIVO, L (lens) ([3]; 48.0 mg/kg in diet): 41.0% |
|  |  | O=C1CC2(C(=O)N1)C(=O)N(Cc1ccc(Br)cc1F)C(=O)c1ccccc12 (stereo not drawn) [2-[(4-Bromo-2-fluorophenyl)methyl]spiro[isoquinoline-4(1H),3'-pyrrolidine]-1,2',3,5'(2H)-tetrone] | 95.0 | 51 |  | 16.0% | 82.0% | 94 | 96 | 12.0% | % Lowering Dulcitol Accumulation IN VIVO, N (sciatic nerve) ([1]; 0.1 mg/kg in diet): 26.0%; % Lowering Dulcitol Accumulation IN VIVO, N (sciatic nerve) ([1]; 0.3 mg/kg in diet): 60.0%; inhibition at 0.1 µM [2]: 94%; % Lowering Dulcitol Accumulation IN VIVO, L (lens) ([3]; 0.1 mg/kg in diet): NS; % Lowering Dulcitol Accumulation IN VIVO, L (lens) ([3]; 0.3 mg/kg in diet): NS |
| 100 | 100 | CN1C(=O)c2ccc(Br)cc2C2(CC(=O)NC2=O)C1=O (stereo not drawn) [6-Br H CH3, 6-Bromo-2-methylspiro[isoquinoline-4(1H),3'-pyrrolidine]-1,2',3,5'(2H)-tetrone] | 54 | 43 | 85 | NS |  |  |  |  |  |
|  |  | CN1C(=O)c2ccc(Cl)cc2C2(CC(=O)NC2=O)C1=O (stereo not drawn) [6-Cl H CH3, 6-Chloro-2-methylspiro[isoquinoline-4(1H)3'-pyrrolidine]-1,2',3,5'(2H)-tetrone] | 75 | 43 | 73 | 33% |  | 94 | 93 |  | % Lowering Dulcitol Accumulation IN VIVO, N (sciatic nerve) ([1]; 3.0 mg/kg in diet): 75%; % Lowering Dulcitol Accumulation IN VIVO, L (lens) ([3]; 3.0 mg/kg in diet): 59% |
|  |  | O=C1C[C@@]2(C(=O)N1)C(=O)N(Cc1ccc(Br)cc1F)C(=O)c1ccccc12 [(R)-(+)-2-[(4-Bromo-2-fluorophenyl)methyl]spiro[isoquinoline-4(1H),3'-pyrrolidine]-1,2',3,5'(2H)-tetrone] |  | 87 | 91 |  | 83% | 93 | 96 | NS | % Lowering Dulcitol Accumulation IN VIVO, N (sciatic nerve) ([1]; 5.1 mg/kg in diet): 100%; % Lowering Dulcitol Accumulation IN VIVO, L (lens) ([3]; 5.1 mg/kg in diet): NS |
|  |  | O=C1C[C@@]2(C(=O)N1)C(=O)N(Cc1ccc(Br)cc1F)C(=O)c1ccc(F)cc12 [(R)-(+)-[2-[(4-Bromo-2-fluorophenyl)methyl]-6-fluoro]spiro[isoquinoline-4(1H),3'-pyrrolidine]-1,2',3,5'(2H)-tetrone] |  |  |  |  |  | 95 | 99 |  | % Lowering Dulcitol Accumulation IN VIVO, N (sciatic nerve) ([1]; 0.4 mg/kg in diet): 100%; % Lowering Dulcitol Accumulation IN VIVO, N (sciatic nerve) ([1]; 0.8 mg/kg in diet): 100%; inhibition at 0.04 µM [2]: 93%; inhibition at 0.1 µM [2]: 93%; % Lowering Dulcitol Accumulation IN VIVO, L (lens) ([3]; 0.4 mg/kg in diet): 31%; % Lowering Dulcitol Accumulation IN VIVO, L (lens) ([3]; 0.8 mg/kg in diet): 26% |
| 87 | 51 | O=C1C[C@]2(C(=O)N1)C(=O)N(Cc1ccc(Br)cc1F)C(=O)c1ccccc12 [(S)-(-)-2-[(4-Bromo-2-fluorophenyl)methyl]spiro[isoquinoline-4(1H),3'-pyrrolidine]-1,2',3,5'(2H)-tetrone] |  |  |  |  | NS |  |  | NS | % Lowering Dulcitol Accumulation IN VIVO, N (sciatic nerve) ([1]; 4.8 mg/kg in diet): 83%; % Lowering Dulcitol Accumulation IN VIVO, L (lens) ([3]; 4.8 mg/kg in diet): NS |

From patent US4927831A, “Spiro-isoquinoline-pyrrolidine tetrones and analogs thereof useful as aldose reductase inhibitors” (American Home Products, priority 1989, dated 1990)
